Experimental data as given in patent US20080206356A1, “Pharmaceutical Compositions for the Treatment of Neurodegenerative Disorders” (UNIVERSIDAD DE BARCELONA, priority 2005, published 2008).

Experiments:
GSK3 [1] = molecular target: T1, GSK3 (Rattus norvegicus, UniProt P18266); test: Ser-9 phosphorylation of GSK3 in brain of healthy rats intraperitoneally injected with tungstate; assay type: in vivo; conditions: tungstate 50 mg/kg intraperitoneally vs saline, FIG. 3A
T1 construct: Western blot analysis of Ser-9 phosphorylation of GSK3 in rat brain extracts; from tissue; host or cells: rat brain (Wistar rats: healthy or STZ-diabetic)
Procedure: (§1) In FIG. 3 the effect of tungstate (W) on the phosphorylation of tau from brains obtained from STZ-diabetic rats is shown. A) Western blot analysis of Ser-9 phosphorylation of GSK3 in rat brain extracts from control healthy rats intraperitoneally injected with saline (Ctrl) or tungstate (W) (50 mg/kg). […] B) as in A), STZ-diabetic rats intraperitoneally injected with 50 or 75 mg/kg of tungstate. C) Western blot analysis of the phosphorylation of tau at the site recognized by the tau-1 antibody in brain extracts from control healthy rats intraperitoneally injected with saline (Ctrl) or tungstate (W) (50 mg/kg). […] D) as in C), STZ-diabetic rats intraperitoneally injected with 50 or 75 mg/kg of tungstate. The data correspond to mean values and the error bars represent the standard deviation of three to five independent experiments.
(§2) The analysis of the degree of the phosphorylation of tau and GSK3 was performed by Western blot with the antibodies mentioned above. […] The protein concentration was determined using the BCA protein assay (Pierce, Rockford, Ill.). […]

tau [2] = test: tau phosphorylation in SH-SY5Y neuroblastoma cells (Western blot, tau-1 and AT-180 antibodies); assay type: cell-based, Human
Procedure: (§3) In FIG. 1 the effect of tungstate (W) on GSK3-β and tau phosphorylation on SH-SY5Y neuroblastoma cells is shown. The data correspond to the mean values and the error bars represent the standard deviation of three independent experiments. A) SH-SY5Y neuroblastoma cells were incubated for 10 minutes in the presence (+) or absence (−) of 1 mM sodium tungstate and their protein extracts were then probed by Western blot with an antibody that recognizes GSK3-β phosphorylated at Ser-9 and total GSK3-β. GSK3-β phosphorylation on Ser-9 causes its inactivation (D. A: Cross et al., Nature, vol. 378, pp. 785-789). […] B) SH-SY5Y cells were incubated with increasing concentrations of tungstate and the degree of tau phosphorylation was determined by Western blot with the tau-1 antibody, which recognizes tau when the serines 198, 199 or 202 are in unphosphorylated form. […] C) SH-SY5Y cells were incubated for 10 minutes in the presence (+) or absence (−) of 1 mM sodium tungstate (W) and the degree of tau phosphorylation was determined by Western blot with the AT180 antibody, which recognizes tau when threonine 231 is in phosphorylated form. […] The total amount of tau protein was determined using the 7.51 antibody.
(§4) The analysis of the degree of the phosphorylation of tau and GSK3 was performed by Western blot with the antibodies mentioned above. […]

tau [3] = test: tau phosphorylation (tau-1 site) in brain of STZ-diabetic rats intraperitoneally injected with tungstate; assay type: in vivo, rat; conditions: tungstate 50 or 75 mg/kg intraperitoneally, FIG. 3D
Procedure: as §1, §2

tau [4] = test: phosphorylation of tau in brains of healthy Wistar rats intracranially injected with tungstate; assay type: in vivo, rat; conditions: intracranial 0.1 mM tungstate vs saline, FIG. 2A
Procedure: (§5) In FIG. 2 the effect of tungstate (W) on the phosphorylation of tau in brains from healthy and insulin-resistant rats is shown. A) Western blot analysis of the phosphorylation of GSK3 (left) and tau (right) from brain extracts of healthy rats intracranially injected with saline (−) or 0.1 mM tungstate (+). Phosphorylation was measured with antibodies against Ser-9 phosphorylated GSK3-β (pS9), and tau phosphorylated at threonine 231 (AT180) or unphosphorylated at serines 198, 199 and 202 (tau-1). The total amount of GSK3 and tau was determined through the interaction with antibodies raised against GSK3 and against tau (7.51), respectively. […] Phosphorylation was measured using the antibody that reacts with Ser-9 phosphorylated GSK3-β (pS9-GSK3-β) or with the tau-1 and AT180 antibodies. The total amounts of GSK3 and tau were determined as in A. C) Insulin-resistant rats were injected intracranially with saline (−) or 0.1 mM tungstate (+), their brains were then isolated and homogenised, and Western blots of the brain proteins were performed with the tau-1, and AT180 antibodies. The total amount of tau protein was determined using the 7.51 antibody. […]
as §2

GSK3-β [5] = molecular target: T2, GSK3-β (Homo sapiens, UniProt P49841); test: Ser-9 phosphorylation of GSK3-β in SH-SY5Y neuroblastoma cells (Western blot); assay type: cell-based; conditions: 1 mM sodium tungstate, 10 minutes, vs vehicle, FIG. 1A
T2 construct: endogenous in cells; host or cells: SH-SY5Y human neuroblastoma cells (ECACC 94030304)
Procedure: as §3, §4

tau [6] = test: phosphorylation of tau in brains of insulin-resistant (high fat diet) rats injected intraventricularly with tungstate; assay type: in vivo, rat; conditions: 5 μl of 110 nM sodium tungstate intraventricularly (FIG. 2 legend: 0.1 mM), 24 hours, cortex, FIG. 2C, dihydrate
Procedure: In FIG. 2 the effect of tungstate (W) on the phosphorylation of tau in brains from healthy and insulin-resistant rats is shown. A) Western blot analysis of the phosphorylation of GSK3 (left) and tau (right) from brain extracts of healthy rats intracranially injected with saline (−) or 0.1 mM tungstate (+). Phosphorylation was measured with antibodies against Ser-9 phosphorylated GSK3-β (pS9), and tau phosphorylated at threonine 231 (AT180) or unphosphorylated at serines 198, 199 and 202 (tau-1). The total amount of GSK3 and tau was determined through the interaction with antibodies raised against GSK3 and against tau (7.51), respectively. B) Western blot analysis of the phosphorylation in brain of GSK3-β (left) and tau (right) in control (Ctrl) and insulin-resistant (IR) rats. Phosphorylation was measured using the antibody that reacts with Ser-9 phosphorylated GSK3-β (pS9-GSK3-β) or with the tau-1 and AT180 antibodies. The total amounts of GSK3 and tau were determined as in A. C) Insulin-resistant rats were injected intracranially with saline (−) or 0.1 mM tungstate (+), their brains were then isolated and homogenised, and Western blots of the brain proteins were performed with the tau-1, and AT180 antibodies. The total amount of tau protein was determined using the 7.51 antibody. A decrease in the interaction with AT180 and an increase for that of tau-1 were observed
The analysis of the degree of the phosphorylation of tau and GSK3 was performed by Western blot with the antibodies mentioned above. Cells were homogenized at 4° C. in 50 mM 4-(2-hydroxyethyl)piperazine-1-ethanesulfonic acid (HEPES), pH 7.4, 10 mM ethylenediaminetetraacetic acid (EDTA), 0.1% 4-(1,1,3,3-tetramethylbutyl)phenyl-polyethylene glycol (triton X-100), 20 mM NaF, 0.1 mM sodium orthovanadate, 1 mM phenylmethanesulphonylfluoride, 10 μg/ml Isovaleryl-Val-Val-4-amino-3-hydroxy-6-methylheptanoyl-Ala-4-amino-3-hydroxy-6-methylheptanoic Acid (Pepstatin A); and 10 μg/ml aprotinin. The cell lysates were centrifuged at 10,000 g for 30 min at 4° C. and then heated at 100° C. for 5 min in electrophoresis sample buffer. The protein concentration was determined using the BCA protein assay (Pierce, Rockford, Ill.). Proteins were fractionated by sodium dodecylsulfate-polyacrylamide gel electrophoresis (SDS-PAGE) on 10% gels and transferred to nitrocellulose membranes (Schleicher & Schuell Bioscience, Dassel, Germany). After blocking non-specific protein binding to the membranes with 0.05% polyethylene glycol sorbitan monolaurate (Tween 20) and 5% non-fat dry milk in phosphate buffered saline (PBS), the membranes were incubated overnight with the primary antibodies in blocking buffer at 4° C. […]

[7] = cited from earlier work
GSK3-β [8] = molecular target: T3, GSK3-β (Rattus norvegicus, UniProt P18266); test: Ser-9 phosphorylation of GSK3-β in brain of STZ-diabetic rats intraperitoneally injected with tungstate; assay type: in vivo; conditions: tungstate 50 or 75 mg/kg intraperitoneally, FIG. 3B
T3 construct: Western blot analysis of Ser-9 phosphorylation of GSK3 in rat brain extracts; from tissue; host or cells: rat brain (Wistar rats: healthy or STZ-diabetic)
Procedure: as §1, §2

tau [9] = test: tau phosphorylation (tau-1 site) in brain of healthy rats intraperitoneally injected with tungstate; assay type: in vivo, rat; conditions: tungstate 50 mg/kg intraperitoneally vs saline, FIG. 3C
Procedure: as §1, §2

GSK3 [10] = molecular target: T1, GSK3; test: phosphorylation of GSK3 in brains of healthy Wistar rats intracranially injected with tungstate; assay type: in vivo; conditions: intracranial 0.1 mM tungstate vs saline, FIG. 2A
Procedure: as §5, §2

T1 sequence (P18266 whole entry): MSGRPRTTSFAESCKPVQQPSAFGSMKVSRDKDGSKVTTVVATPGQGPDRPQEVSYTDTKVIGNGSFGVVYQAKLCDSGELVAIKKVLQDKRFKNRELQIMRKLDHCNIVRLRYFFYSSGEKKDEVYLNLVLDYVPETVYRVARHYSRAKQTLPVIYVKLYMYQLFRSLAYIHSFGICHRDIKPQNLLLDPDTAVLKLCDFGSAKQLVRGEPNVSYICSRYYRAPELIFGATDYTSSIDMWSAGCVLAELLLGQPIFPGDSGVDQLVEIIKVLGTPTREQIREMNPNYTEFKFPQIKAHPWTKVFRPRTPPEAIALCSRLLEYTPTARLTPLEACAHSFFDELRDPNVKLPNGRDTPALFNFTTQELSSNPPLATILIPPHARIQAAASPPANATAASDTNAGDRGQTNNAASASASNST
T3 sequence (P18266 whole entry): as above
T2 sequence (P49841 whole entry): as the sequence (P18266 whole entry) above, with M240V, P390T, A392T, T400A, A402T counted along it

phosphorylation of GSK3 at Ser-9 in brain (pS9-GSK3 / GSK3-β) (GSK3 [1]): no changes
Ser-9 phosphorylation of GSK3-β (ratio GSK3-β-pS9 / total GSK3-β) (GSK3-β [5]): significantly increased
Ser-9 phosphorylation of GSK3-β in brain (pS9-GSK3 / GSK3-β) (GSK3-β [8]): increased
phosphorylation of GSK3 (Ser-9) in brain (GSK3 [10]): did not observe significant changes
Compound: O.O.[Na+].[Na+].[O]=[W](=[O])([O-])[O-] [sodium tungstate, Sodium tungstate dihydrate]
phosphorylation of the tau epitope recognized by AT-180 (threonine 231; ratio AT180 / 7.51) (tau [2]; 1 mM sodium tungstate, 10 minutes, FIG. 1C): decrease
immunoreactivity with the tau-1 antibody (tau unphosphorylated at serines 198, 199 or 202; ratio tau1 / 7.51) (tau [2]; increasing concentrations of tungstate, FIG. 1B): significant increase
tau phosphorylation at the site recognized by the tau-1 antibody in brain (tau-1 / 7.51) (tau [3]): decreased
phosphorylation of tau (AT180, tau-1) in brain (tau [4]): did not observe significant changes
amount of tau protein recognized by the tau-1 antibody in brain (tau [6]; listed as Tungstate): increased
phosphorylation of tau at the epitope recognized by the AT180 antibody in brain (tau [6]; listed as Tungstate): decreased
amount of tau protein recognized by the tau-1 antibody in brain (tau [6]; listed as tungstate): increase
phosphorylation of tau at the epitope recognized by the AT180 antibody in brain (tau [6]; listed as tungstate): decrease
solubility in water [7]: easily dissolved
tau phosphorylation at the site recognized by the tau-1 antibody in brain (tau-1 / 7.51) (tau [9]): no changes
